Test results reported in ChEMBL document CHEMBL1201862, “PubChem BioAssay data set” (2004).
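Protocol summary: plate cells (96-well), add compound at 5 concentrations, incubate 48 h, interpolate endpoints linearly. GI50: concentration for 50% inhibition of growth.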 Activity calls are given as the source filed them. Rule as the data show it: active = GI50 up to about 1.1 µM and inactive = higher.

Key:
Test in all cases: growth of human tumour cells (NCI), 48 h
UACC-257 = system: UACC-257
HL-60 = system: HL-60
OVCAR-5 = system: OVCAR-5
Malme-3M = system: Malme-3M
U-251 = system: U-251
MDA-MB-435 = system: MDA-MB-435
COLO 205 = system: COLO 205
MOLT-4 = system: MOLT-4
Hs-578T = system: Hs-578T
LOX IMVI = system: LOX IMVI
OVCAR-3 = system: OVCAR-3
RPMI-8226 = system: RPMI-8226
MDA-MB-231 = system: MDA-MB-231
EKVX = system: EKVX
DU-145 = system: DU-145
HT-29 = system: HT-29
SK-MEL-28 = system: SK-MEL-28
OVCAR-8 = system: OVCAR-8
786-0 = system: 786-0
UO-31 = system: UO-31

| SMILES | GI50 (UACC-257) | GI50 (HL-60) | GI50 (OVCAR-5) | GI50 (Malme-3M) | GI50 (U-251) | GI50 (MDA-MB-435) | GI50 (COLO 205) | GI50 (MOLT-4) | GI50 (Hs-578T) | GI50 (LOX IMVI) | GI50 (OVCAR-3) | GI50 (RPMI-8226) | GI50 (MDA-MB-231) | GI50 (EKVX) | GI50 (DU-145) | GI50 (HT-29) | GI50 (SK-MEL-28) | GI50 (OVCAR-8) | GI50 (786-0) | GI50 (UO-31) |
| --- | --- | --- | --- | --- | --- | --- | --- | --- | --- | --- | --- | --- | --- | --- | --- | --- | --- | --- | --- | --- |
| OC(CC(CC(O)(C(F)(F)Cl)C(F)(F)Cl)=NNc1ccccc1)(C(F)(F)Cl)C(F)(F)Cl | 1.88 µM (inactive) | > 10 µM (inactive) | 3.66 µM (inactive) | 3.7 µM (inactive) | 3.3 µM (inactive) | 3.57 µM (inactive) | 1.91 µM (inactive) | > 10 µM (inactive) | 2.45 µM (inactive) | 2.94 µM (inactive) | 2.77 µM (inactive) | > 10 µM (inactive) | 2.78 µM (inactive) | 3.27 µM (inactive) | 3.3 µM (inactive) | 3.06 µM (inactive) | 2.92 µM (inactive) | 2.9 µM (inactive) | 4.54 µM (inactive) | – |
| Clc1ccc(C2c3ccccc3-c3nc4ccccc4n32)cc1 (centres undefined) | 53.7 µM (inactive) | 3.65 µM (inactive) | 25.4 µM (inactive) | 38.8 µM (inactive) | 24.3 µM (inactive) | 32.7 µM (inactive) | > 61.2 µM (inactive) | 8.09 µM (inactive) | 4.92 µM (inactive) | 19.7 µM (inactive) | 12.6 µM (inactive) | 9.75 µM (inactive) | > 84.1 µM (inactive) | 16.5 µM (inactive) | 58.2 µM (inactive) | 20.9 µM (inactive) | > 56.8 µM (inactive) | 18.2 µM (inactive) | 17.7 µM (inactive) | 4.05 µM (inactive) |
| O=C(O)c1ccc(N2C=[N+]3C(=Nc4ccccc43)C2)cc1 | > 100 µM (inactive) | > 100 µM (inactive) | > 100 µM (inactive) | 0.475 µM (active) | > 100 µM (inactive) | > 100 µM (inactive) | > 100 µM (inactive) | – | > 100 µM (inactive) | > 100 µM (inactive) | > 100 µM (inactive) | > 100 µM (inactive) | > 100 µM (inactive) | > 100 µM (inactive) | > 100 µM (inactive) | > 100 µM (inactive) | > 100 µM (inactive) | > 100 µM (inactive) | > 100 µM (inactive) | > 100 µM (inactive) |
| CCOC(=O)/C=C(\C(=O)OCC)n1cc(C)c(=O)n(Cc2cnnn2COCCOC(C)=O)c1=O | 13.4 µM (inactive) | 3.15 µM (inactive) | 17.1 µM (inactive) | 1.48 µM (inactive) | 17.7 µM (inactive) | 8.97 µM (inactive) | 2.07 µM (inactive) | 2.57 µM (inactive) | 14.3 µM (inactive) | 5.97 µM (inactive) | 11.7 µM (inactive) | 6.24 µM (inactive) | 19.8 µM (inactive) | 11.9 µM (inactive) | 21.2 µM (inactive) | 8.59 µM (inactive) | 9.89 µM (inactive) | 7.03 µM (inactive) | 3.93 µM (inactive) | 14.4 µM (inactive) |
| CC(C)c1ccc(NC(=S)NC(=O)c2ccccc2)cc1 | 14.8 µM (inactive) | 3.82 µM (inactive) | 28.3 µM (inactive) | 24.5 µM (inactive) | 26.9 µM (inactive) | 13.8 µM (inactive) | 16.3 µM (inactive) | 13.1 µM (inactive) | 31.8 µM (inactive) | 15.3 µM (inactive) | 18.1 µM (inactive) | 23.7 µM (inactive) | 26.6 µM (inactive) | 30.8 µM (inactive) | 23.2 µM (inactive) | 10.4 µM (inactive) | 20.8 µM (inactive) | 32.3 µM (inactive) | 18.4 µM (inactive) | 3.94 µM (inactive) |
| COC(=O)CN1Cc2cc(C)cc(c2O)CN(CC(=O)OC)Cc2cc(C)cc(c2O)CN(CC(=O)OC)Cc2cc(C)cc(c2O)CN(CC(=O)OC)Cc2cc(C)cc(c2O)C1 | 16.8 µM (inactive) | 3.03 µM (inactive) | 9.46 µM (inactive) | 12.2 µM (inactive) | 14 µM (inactive) | 26.9 µM (inactive) | 13.7 µM (inactive) | 9.62 µM (inactive) | 38.4 µM (inactive) | 7.33 µM (inactive) | 7.05 µM (inactive) | 39 µM (inactive) | 26.7 µM (inactive) | 9.06 µM (inactive) | 8.17 µM (inactive) | 8.79 µM (inactive) | 21.9 µM (inactive) | 11 µM (inactive) | 10.2 µM (inactive) | 8.89 µM (inactive) |
| CN(C)CC1CCC/C(=C\c2ccc(OC(=O)/C=C/c3ccc(Cl)c(Cl)c3)cc2)C1=O (centres undefined) | 9.91 µM (inactive) | 0.796 µM (active) | 20.5 µM (inactive) | 5.4 µM (inactive) | 6.17 µM (inactive) | 6.89 µM (inactive) | 1.83 µM (inactive) | 1.66 µM (inactive) | 4.21 µM (inactive) | 1.86 µM (inactive) | 3.48 µM (inactive) | 0.164 µM (active) | 3.71 µM (inactive) | 5.9 µM (inactive) | 8.97 µM (inactive) | 2.11 µM (inactive) | 7.8 µM (inactive) | 3.92 µM (inactive) | 1.83 µM (inactive) | 2.77 µM (inactive) |
| COc1cc(OC)cc(OCc2ccc3nc(-c4ccccc4)c(Cl)nc3c2)c1 | > 100 µM (inactive) | 54.6 µM (inactive) | 49 µM (inactive) | 11 µM (inactive) | 20.9 µM (inactive) | 84.5 µM (inactive) | 25.2 µM (inactive) | 25.9 µM (inactive) | 27.3 µM (inactive) | 43.1 µM (inactive) | > 100 µM (inactive) | 33.4 µM (inactive) | 7.16 µM (inactive) | 27 µM (inactive) | 52.7 µM (inactive) | 48.5 µM (inactive) | > 100 µM (inactive) | 25.8 µM (inactive) | 9.89 µM (inactive) | 66.2 µM (inactive) |
| Cc1c(/N=N/c2ccccc2)c(-c2ccccc2)n(C2OC(CO)C(O)C(O)C2O)c(=S)c1C#N (centres undefined) | – | 3.66 µM (inactive) | 13.8 µM (inactive) | 6.67 µM (inactive) | 4.08 µM (inactive) | 4.98 µM (inactive) | 5.56 µM (inactive) | 1.95 µM (inactive) | 2.86 µM (inactive) | 2.62 µM (inactive) | 4.56 µM (inactive) | 4.06 µM (inactive) | 10 µM (inactive) | 13.8 µM (inactive) | 6.17 µM (inactive) | 6.59 µM (inactive) | 4.03 µM (inactive) | 3.99 µM (inactive) | 5.14 µM (inactive) | 7.74 µM (inactive) |
| CC1=NC(C)(COC(=O)C2(C)NC(C)(CO)CO2)COC1=O (centres undefined) | > 100 µM (inactive) | > 100 µM (inactive) | > 100 µM (inactive) | > 100 µM (inactive) | > 100 µM (inactive) | > 100 µM (inactive) | > 100 µM (inactive) | > 100 µM (inactive) | > 100 µM (inactive) | > 100 µM (inactive) | > 100 µM (inactive) | > 100 µM (inactive) | > 100 µM (inactive) | > 100 µM (inactive) | > 100 µM (inactive) | > 100 µM (inactive) | > 100 µM (inactive) | > 100 µM (inactive) | > 100 µM (inactive) | > 100 µM (inactive) |
| COc1ccc(/C=C(\Cl)c2ccc(OC)c(OC)c2)cc1OC | > 100 µM (inactive) | > 100 µM (inactive) | > 100 µM (inactive) | > 100 µM (inactive) | > 100 µM (inactive) | > 100 µM (inactive) | > 100 µM (inactive) | > 100 µM (inactive) | > 100 µM (inactive) | > 100 µM (inactive) | > 100 µM (inactive) | > 100 µM (inactive) | > 100 µM (inactive) | > 100 µM (inactive) | > 100 µM (inactive) | > 100 µM (inactive) | > 100 µM (inactive) | > 100 µM (inactive) | > 100 µM (inactive) | > 100 µM (inactive) |
| S=C1N=C(Cl)/C(=C\c2ccco2)N1 | > 100 µM (inactive) | > 70.5 µM (inactive) | > 100 µM (inactive) | > 100 µM (inactive) | > 100 µM (inactive) | > 100 µM (inactive) | > 100 µM (inactive) | > 10 µM (inactive) | > 100 µM (inactive) | > 100 µM (inactive) | > 100 µM (inactive) | > 100 µM (inactive) | > 100 µM (inactive) | > 100 µM (inactive) | > 100 µM (inactive) | > 100 µM (inactive) | > 100 µM (inactive) | > 100 µM (inactive) | > 100 µM (inactive) | > 100 µM (inactive) |
| Brc1c(C#CCC2CCCCC2)ccc(C#CCC2CCCCC2)c1Br | > 100 µM (inactive) | > 100 µM (inactive) | > 100 µM (inactive) | > 100 µM (inactive) | > 100 µM (inactive) | > 100 µM (inactive) | > 100 µM (inactive) | > 100 µM (inactive) | > 100 µM (inactive) | > 100 µM (inactive) | > 100 µM (inactive) | > 100 µM (inactive) | > 100 µM (inactive) | > 100 µM (inactive) | > 100 µM (inactive) | – | > 100 µM (inactive) | > 100 µM (inactive) | > 100 µM (inactive) | – |
| CC(=O)OCC1OC(n2c(-c3ccc(C)cc3)cc(-c3ccccc3)c(C#N)c2=S)C(OC(C)=O)C(OC(C)=O)C1OC(C)=O (centres undefined) | – | > 100 µM (inactive) | > 100 µM (inactive) | > 100 µM (inactive) | > 100 µM (inactive) | > 100 µM (inactive) | > 100 µM (inactive) | > 100 µM (inactive) | 65.2 µM (inactive) | > 100 µM (inactive) | > 100 µM (inactive) | > 100 µM (inactive) | > 100 µM (inactive) | > 100 µM (inactive) | > 100 µM (inactive) | > 100 µM (inactive) | > 100 µM (inactive) | > 100 µM (inactive) | > 100 µM (inactive) | > 100 µM (inactive) |
